Results on two molecules are retold here after patent publication US9393326B2, “Compositions and methods for multimodal imaging” (University Health Network, priority 2005, dated 2016).

A short description of data set [1]: In vitro CT imaging in multimodal phantom. Conditions: 120 kV, 300 mA. As to the method: In vitro contrast efficacy was determined by imaging the liposome formulated signal modifying agents at varying concentrations in both CT and MR, using a multimodal imaging phantom. To minimize the amount of agent leakage from liposomes, in vitro imaging scans were performed immediately following the removal of free agents by dialysis. […] The mean attenuation in Hounsfield units was measured using circular regions of interest (ROI). Attenuation values were then plotted against signal modifying agent concentrations using linear regression analysis.

A short description of data set [2]: In vitro MR imaging in multimodal phantom. From the text: The phantom and the vials were filled to capacity to minimize air-induced susceptibility artefacts. Scans were produced using a T1 weighted spin echo sequence with a repetition time (TR) of 400 ms, an echo time (TE) of 9 ms, a slice thickness of 3 mm, a FOV of 1 9.9×19.9 cm and an image carrier of 256×192 pixels. The relative signal intensity was taken over the ROI. Solutions of free signal modifying agents were also imaged as controls in both modalities.

The nature of data set [3]: In vitro relaxometry (r1, r2). It counts as physicochemical. Conditions: 20° C., 1.5 T, versus gadolinium concentration (free iohexol: [I]). How it is done: All in vitro relaxometry measurements were performed at 20° C. on a 1.5 Tesla, 20-cm-bore superconducting magnet (Nalorac Cryogenics Corp., Martinez, Calif.) controlled by an SMIS spectroscopy console (SMIS, Surrey, UK). The T1 relaxation time data were acquired using an inversion recovery (IR) sequence (45) with 35 inversion recovery time (TI) values logarithmically spaced from 1 to 32000 ms. A 10 second delay was given between each acquisition and the next inversion pulse. […] For every measurement 2000 even echoes were sampled with 8 averages. The effects of any residual transverse magnetization following the off-resonance irradiation was removed by phase-cycling the π/2 pulse (−x/x).
The T1 relaxation data were analyzed assuming mono-exponential behaviour
[formula] where S is the signal observed, M0 is the magnetization at equilibrium, t is time and T1 is the longitudinal relaxation time). All T2 decay data were plotted to a one component T2 model with a Gaussian fit on a logarithmic time scale. The r1 and r2 values were calculated from linear regression analysis of 1/T1 and 1/T2 relaxation rates versus gadolinium concentration.

Take `CC(=O)N(CC(O)CO)c1c(I)c(C(=O)NCC(O)CO)c(I)c(C(=O)NCC(O)CO)c1I` (stereo not shown) [Free Iohexol, iohexyl]: the “CT attenuation (linear regression)” value in data set [1] is 29.0±0.4 HU/(mg of iodine) in 1 mL of HBS. In addition, the “average differential signal intensity in MR relative to water” value in data set [2] (iodine 0 to 17 mmol/L) is reported as 1.8±7.1 SI. In data set [3], this molecule had a r1 of 0.00 ± 0.00 s^−1mmol^−1L and a r2 of 0.01 ± 0.01 s^−1mmol^−1L. Also, in data set [3] (listed as iohexyl), the r1 was 0.0 s^−1mmol^−1L.

For `CC(O)CN1CCN(CC(=O)[O-])CCN(CC(=O)[O-])CCN(CC(=O)[O-])CC1.[Gd+3]` (stereo not shown) [Free Gadoteridol, gadolinium complex of 10-(2-hydroxy-propyl)-1,4,7,10-tetraazacyclododecane-1,4,7-triacetic acid], in data set [1], the “CT attenuation (linear regression)” value is listed as 11.1±0.5 HU/(mg of gadolinium) in 1 mL of HBS. In addition, the “peak differential signal intensities with respect to water in MR” value in data set [2] (gadolinium 1 to 9 mmol/L) is on record as greater than 600 SI. Besides, the results for the r1 in data set [3] and in data set [3] (listed as unencapsulated gadoteridol) were 5.14 ± 0.06 s^−1mmol^−1L and 5.1 s^−1mmol^−1L, respectively. Moreover, the r2 in data set [3] is reported as 6.21 ± 0.08 s^−1mmol^−1L.
